Test results reported in patent US20070270350A1, “Methods and Compositions for the Prevention and Treatment of Inflammatory Diseases or Conditions” (MUSC FOUNDATION FOR RESEARCH DEVELOPMENT, priority 2003, published 2007).

Key:
[1] = cited from earlier work
[2] = test system: iNOS; test: LPS/IFN-induced NO production and iNOS gene expression in primary astrocytes; format: cell-based, rat
[3] = test system: iNOS; test: LPS/IFN-induced NO production and iNOS expression in C6 glioma cells; format: cell-based, rat; conditions: exogenous glycosphingolipid with D-PDMP
Procedure: C6 rat glioma cells obtained from ATCC were maintained in Dulbecco's modified Eagle's medium (DMEM) (GIBCO, CA) containing 10% fetal bovine serum (FBS) (GIBCO) and 10 ? g/ml gentamicin. All the cultured cells were maintained at 37° C. in 5% CO2/95% air. At 80% confluency, the cells were incubated with serum free DMEM medium for 24 h prior to the incubation with LPS/IFN ? and other chemicals. Assay for NO production. Cells were cultured in 12-well plastic tissue culture plates. After the appropriate treatment, production of NO was determined by an assay of the culture supernatant for nitrite (Green et al., 1982). Briefly, 100 μl of culture supernatant was allowed to react with 100 μl of Griess reagent. The optical density of the assay samples was measured spectrophotometrically at 570 nm. Nitrite concentrations were calculated from a standard curve derived from the reaction of NaNO2 in fresh media. Western Blot Analysis. […] The protein concentration of samples was determined with the detergent compatible protein assay reagent (Bio-Rad Laboratories, CA) using bovine serum albumin (BSA) as the standard. Sample was boiled for 3 min with 0.1 volumes of 10% O-mercaptoethanol and 0.5% bromophenol blue mix. Fifty μg of total cellular protein was resolved by electrophoresis in 8 or 12% polyacrylamide gels, electro-transferred to polyvinylidene difluoride (PVDF) filter and blocked with Tween 20 containing Tris-buffered saline [TBST; 10 mM Trizma base (pH 7.4), 1% Tween 20, and 150 mM NaCl] with 5% skim milk. After incubation with antiserum against iNOS (BD PharMingen, CA), or hRas (Upstate Biotechnology, CA), or phospho-specific MAPK (p42/44) (Signal Transduction), in PVDF buffer for 2 h at room temperature, the filters were washed 3 times with TBST buffer and then incubated with horseradish peroxidase conjugated anti-rabbit or mouse IgG for 1 h. The membranes were autoradiographed by using ECL-plus (Amersham Pharmacia Biotech) after washing with TBST buffer. RT-PCR amplification. […] PCR amplification was conducted in 25 ? l of reaction mixture with 1.0 ? l of cDNA, […] and under the manufacturer's Taq polymerase conditions (Takara, […] Shuzo Co. Ltd, Japan). The sequence of primers used for PCR amplification are as follows; iNOS, (Forward-[NT], Reverse-[NT]), GalT-2 (Forward-[NT], Reverse-[NT]), GAPDH (Forward-[NT], Reverse-[NT]).

[4] = test system: small GTPase Ras; test: Quantification of Ras activation (GST-Raf-1 Ras binding domain); format: cell-based, rat; conditions: exogenous LacCer with D-PDMP
Procedure: Quantification of Ras Activation. After stimulation, primary astrocytes in 6 well plates were washed with PBS and lysed in membrane lysis buffer (MLB; 0.5 ml of 25 mM HEPES, pH7.5, 150 mM NaCl, 1% Igepal CA-630, 0.25% sodium deoxycholate, 10% glycerol, 10 mM MgCl2, 1 mM EDTA, 25 mM NaF, 1 mM of sodium orthovanadate, and EDTA free Complete™ protease inhibitor cocktail). After centrifugation (5,000×g) at 4° C. for 5 min, supernatant was used for Ras activation assay. One hundred μg of supernatant was used for binding with agarose conjugated Ras-binding domain (RBD) of Raf-1 which was expressed in BL21 (Invitrogen) Escherichia coli strain transformed by pGEX-2T-GST-RBD in the presence of 0.1 mM of IPTG as described previously (Herrmann et al., 1995). The binding reaction was performed at 4° C. for 30 min in MLB. Following washing with MLB three times, Ras-RBD complex were denatured by adding of 2×SDS sample buffer. Ras protein was identified by western immunoblot analysis with Ras antibodies from Upstate Biotechnology.

[5] = test system: ERK1/2; test: ERK1/2 phosphorylation by immunoblot after LPS/IFN; format: cell-based, rat; conditions: exogenous LacCer with D-PDMP
Procedure: (§1) Western Blot Analysis. For iNOS protein, the cells were washed with cold Tris buffered saline (TBS; 20 mM Trizma base, and 137 mM NaCl, pH 7.5), lysed in 1×SDS sample loading buffer (62.5 mM Trizma base, 2% w/v SDS, 10% glycerol), following sonication and centrifugation at 1,5000×g for 5 min, the supernatant was used for the iNOS western immunoblot assay. The protein concentration of samples was determined with the detergent compatible protein assay reagent (Bio-Rad Laboratories, CA) using bovine serum albumin (BSA) as the standard. Sample was boiled for 3 min with 0.1 volumes of 10% O-mercaptoethanol and 0.5% bromophenol blue mix. Fifty μg of total cellular protein was resolved by electrophoresis in 8 or 12% polyacrylamide gels, electro-transferred to polyvinylidene difluoride (PVDF) filter and blocked with Tween 20 containing Tris-buffered saline [TBST; 10 mM Trizma base (pH 7.4), 1% Tween 20, and 150 mM NaCl] with 5% skim milk. After incubation with antiserum against iNOS (BD PharMingen, CA), or hRas (Upstate Biotechnology, CA), or phospho-specific MAPK (p42/44) (Signal Transduction), in PVDF buffer for 2 h at room temperature, the filters were washed 3 times with TBST buffer and then incubated with horseradish peroxidase conjugated anti-rabbit or mouse IgG for 1 h. The membranes were autoradiographed by using ECL-plus (Amersham Pharmacia Biotech) after washing with TBST buffer.

[6] = test system: NF-κB; test: NF-κB reporter, gel shift and IκB phosphorylation after LPS/IFN; format: cell-based, rat
Procedure: as §1
Nuclear Extraction and Electrophoretic mobility shift assay. Nuclear extracts from cells (1×10^7 cells) were prepared using previously published method (Dignam et al., 1983) with slight modification. Cells were harvested, washed twice with ice-cold TBS, and lysed in 400 μl of buffer A containing, 10 mM KCl, 2 mM MgCl2, 0.5 mM dithiothreitol, protease inhibitor cocktail (Sigma), and 0.1% Nonidet P40 in 10 mM HEPES, pH 7.9 for 10 min on ice. Following centrifugation at 5,000×g for 10 min, the pelleted nuclei were washed with buffer A without Nonidet P40, and re-suspended in 40 μl of buffer B containing 25% (v/v) glycerol, 0.42 M NaCl, 1.5 mM MgCl2, 0.2 mM EDTA, 0.5 mM dithiothreitol, and Complete™ protease inhibitor cocktail (Roche) in 20 mM HEPES, pH7.9 for 30 min on ice. The lysates were centrifuged at 15,000×g for 15 min and the supernatants containing the nuclear proteins were stored at −70° C. until use. Ten μg of nuclear proteins was used for the electrophoretic mobility shift assay for detection of AP-1, NFκB, and C/EBP DNA binding activities. DNA-protein binding reactions were carried out at room temperature for 20 min in 10 mM Trizma base (pH 7.9), 50 mM NaCl, 5 mM MgCl2, 1 mM EDTA, 1 mM dithiothreitol, 1 μg poly (dl-dC), 5% (v/v) glycerol, and approximately 0.3 pmol of NFκB (Santa Cruz Biotech) labeled with DIG-ddUTP using terminal deoxynucleotidyl transferase (Roche). Protein-DNA complexes were resolved from protein-free DNA in 5% polyacrylamide gels at room temperature in 50 mM Tris, pH 8.3, 0.38 M glycine, and 2 mM EDTA, and electroblotted onto positively charged nylon membranes. The chemiluminescence detection method for DIG-labeled probes is identical to the method described for the non-isotopic northern blot analysis in the preceding.
Transient Transfections and Reporter Gene Assay. 3×10^5 cells/well were cultured in 6-well plates for one day before the transfection. Transfection was performed with plasmid concentration constant (2.5 μg/transfection) and 8 μl of Fugene transfection reagent (Roche Molecular Biochemicals). One day after transfection, the cells were placed in serum free media for overnight. Following appropriate treatment, the cells were washed with phosphate buffered saline (PBS), scrapped, and then resuspended with 100 μl of lysis buffer (40 mM of Tricine pH 7.8, 50 mM of NaCl, 2 mM of EDTA, 1 mM of MgSO4, 5 mM of dithiothreitol, and 1% of Triton X-100). After incubation in room temperature for 15 min with occasional vortexing, the samples were centrifuged. […]

effect on D-PDMP reduction of Ras activation [4] | effect on D-PDMP inhibition of NF-κB DNA binding activity ([6]; exogenous LacCer with D-PDMP) | effect on D-PDMP inhibition of κB-repeat luciferase activity ([6]; exogenous LacCer with D-PDMP) | Molecule | solubility in water [1] | effect on D-PDMP mediated inhibition of iNOS gene expression ([2]; LacCer 5 and 10 μM with D-PDMP 50 μM before LPS/IFN) | effect on PD98059 inhibition of iNOS gene expression ([2]; exogenous LacCer with PD98059) | effect on D-PDMP mediated inhibition of NO production ([2]; glycosphingolipid 5 and 10 μM added with D-PDMP 50 μM, 0.5 hr before LPS/IFN, 24 hrs) | effect on D-PDMP inhibition of NO production [3] | effect on D-PDMP inhibition of iNOS mRNA and protein expression [3] | effect on D-PDMP inhibition of ERK 1/2 phosphorylation [5] | levels of phosphorylated IκB ([6]; LacCer added to D-PDMP)
– | – | – | CCCCN1CC(O)C(O)C(O)C1CO [Miglustat, 1,5-(butylimino)-1,5-dideoxy-D-glucitol] | soluble | – | – | – | – | – | – | –
fully reversed | reversed | effectively bypassed | lactosylceramide [LacCer] | – | blunted | no effect | blunted | reversed | reversed | reversed | increased
